Experimental data: patent publication US20160122386A1, “V1A RECEPTOR AGONISTS” (FERRING B.V., priority 2014, published 2016)
pEC50: −log10 of the molar value. Starred links: 1 amine or outer side, 2 acyl side, 3 side chain; linkers in the order of their positions; H or OH if unused. Positions of bridges follow the written chain, without caps; N, C: chain ends. Non-standard residues stand in square brackets, D forms with d. Residues, ends and D or L forms follow the SMILES beside them. Chains are numbered I, II in the order given. *: point of attachment. isoGln = NC(=O)[C@H](CCC(=O)[*:2])N[*:1]; d(εLys) = N[C@H](CCCCN[*:1])C(=O)[*:2]; X1 = N[C@@H](CCC(=O)[*:2])C(=O)[*:1]; εLys = N[C@@H](CCCCN[*:1])C(=O)[*:2]; Cit = NC(=O)NCCC[C@H](N)C(=O)O; Heptanoyl = CCCCCCC(=O)*; Dab = NCC[C@H](N)C(=O)O; PhAc = O=C(Cc1ccccc1)*; Ava = NCCCCC(=O)O

Molecular target: T1, human V1aR (Homo sapiens, UniProt P37288)
T1 construct: expressed in transfected cells
Test: Agonist activity at vasopressin V1a receptors, cell-based FLIPR calcium assay
Conditions: for Emax: read-out: Efficacy Avg. (%)
Summary of the method: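 HEK Flp-In cells stably expressing human V1aR were loaded with Calcium 4 dye plus 2.5 mM probenecid for 1 h at 37 °C, then given half-log compound concentrations (final 0.1% DMSO) on FLIPR Tetra.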

T1 sequence (P37288 whole entry): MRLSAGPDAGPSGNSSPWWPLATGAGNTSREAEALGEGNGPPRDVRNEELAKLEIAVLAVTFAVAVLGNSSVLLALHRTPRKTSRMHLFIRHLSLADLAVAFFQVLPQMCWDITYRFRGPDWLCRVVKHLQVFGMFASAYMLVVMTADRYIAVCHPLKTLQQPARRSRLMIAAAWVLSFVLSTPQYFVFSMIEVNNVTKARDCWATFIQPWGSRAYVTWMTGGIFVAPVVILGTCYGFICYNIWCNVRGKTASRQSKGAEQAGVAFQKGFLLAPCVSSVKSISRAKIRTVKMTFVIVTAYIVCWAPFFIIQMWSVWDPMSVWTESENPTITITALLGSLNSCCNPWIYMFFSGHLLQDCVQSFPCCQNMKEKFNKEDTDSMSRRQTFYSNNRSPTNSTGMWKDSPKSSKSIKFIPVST

Compound	pEC50	Emax [%]
CC[C@H](C)[C@@H]1NC(=O)[C@H](Cc2ccccc2)NC(=O)[C@@H](N)CSSC[C@@H](C(=O)N2CCC[C@H]2C(=O)N[C@@H](CCNC(=O)[C@@H](N)CCCCNC(=O)CC[C@H](NC(=O)[C@H](CCCNC(=N)N)NC(=O)[C@@H]2CCCN2C(=O)[C@H](CCCNC(=N)N)NC(=O)[C@H](CC(N)=O)NC(=O)[C@H](CCC(N)=O)NC(=O)[C@@H](NC(=O)[C@@H](Cc2ccc(OC)cc2)NC(=O)Cc2ccccc2)[C@@H](C)CC)C(N)=O)C(=O)NCC(N)=O)NC(=O)[C@H](CC(N)=O)NC(=O)[C@H](CCC(N)=O)NC1=O [Compound 36] (I: H-CFIQNCP[Dab]G-NH2 / II: PhAc-[dY](Me)IQNRPR[isoGln][εLys]; disulfide I:1-I:6; amide I:8-II:C)	8.92	46
CC[C@H](C)[C@@H]1NC(=O)[C@H](Cc2ccccc2)NC(=O)[C@@H](N)CSSC[C@@H](C(=O)N2CCC[C@H]2C(=O)N[C@@H](CCNC(=O)[C@@H](N)CCCCNC(=O)CCCCNC(=O)CC[C@H](NC(=O)[C@H](CCCNC(=N)N)NC(=O)[C@@H]2CCCN2C(=O)[C@H](C)NC(=O)[C@H](CC(N)=O)NC(=O)[C@H](CCC(N)=O)NC(=O)[C@H](Cc2ccccc2)NC(=O)[C@@H](Cc2ccc(OC)cc2)NC(=O)Cc2ccccc2)C(N)=O)C(=O)NCC(N)=O)NC(=O)[C@H](CC(N)=O)NC(=O)[C@H](CCC(N)=O)NC1=O [Compound 37] (I: H-CFIQNCP[Dab]G-NH2 / II: PhAc-[dY](Me)FQNAPR[isoGln][Ava][εLys]; disulfide I:1-I:6; amide I:8-II:C)	8.89	44
CC[C@H](C)[C@@H]1NC(=O)[C@H](Cc2ccccc2)NC(=O)[C@@H](N)CSSC[C@@H](C(=O)N2CCC[C@H]2C(=O)N[C@@H](CCNC(=O)[C@@H](N)CCC(=O)NCCCC[C@H](NC(=O)[C@H](CCCNC(=N)N)NC(=O)[C@@H]2CCCN2C(=O)[C@H](C)NC(=O)[C@H](CC(N)=O)NC(=O)[C@H](CCC(N)=O)NC(=O)[C@H](Cc2ccccc2)NC(=O)[C@@H](Cc2ccc(OC)cc2)NC(=O)Cc2ccccc2)C(N)=O)C(=O)NCC(N)=O)NC(=O)[C@H](CC(N)=O)NC(=O)[C@H](CCC(N)=O)NC1=O [Compound 38] (I: H-CFIQNCP[Dab]G-NH2 / II: PhAc-[dY](Me)FQNAPRK-NH2; disulfide I:1-I:6; linker I:8-II:8 via X1)	8.85	46
CC[C@H](C)[C@@H]1NC(=O)[C@H](Cc2ccccc2)NC(=O)[C@@H](N)CSSC[C@@H](C(=O)N2CCC[C@H]2C(=O)N[C@@H](CCNC(=O)[C@H](N)CCCCNC(=O)CC[C@H](NC(=O)[C@H](CCCNC(=N)N)NC(=O)[C@@H]2CCCN2C(=O)[C@H](C)NC(=O)[C@H](CC(N)=O)NC(=O)[C@H](CCC(N)=O)NC(=O)[C@H](Cc2ccccc2)NC(=O)[C@@H](Cc2ccc(OC)cc2)NC(=O)Cc2ccccc2)C(N)=O)C(=O)NCC(N)=O)NC(=O)[C@H](CC(N)=O)NC(=O)[C@H](CCC(N)=O)NC1=O [Compound 39] (I: H-CFIQNCP[Dab]G-NH2 / II: PhAc-[dY](Me)FQNAPR[isoGln][d(εLys)]; disulfide I:1-I:6; amide I:8-II:C)	8.74	48
CC[C@H](C)[C@@H]1NC(=O)[C@H](Cc2ccccc2)NC(=O)[C@@H](N)CSSC[C@@H](C(=O)N2CCC[C@H]2C(=O)N[C@@H](CCNC(=O)[C@@H](N)CCCCNC(=O)[C@H](CCCCN)NC(=O)CC[C@H](NC(=O)[C@H](CCCNC(=N)N)NC(=O)[C@@H]2CCCN2C(=O)[C@H](C)NC(=O)[C@H](CC(N)=O)NC(=O)[C@H](CCC(N)=O)NC(=O)[C@H](Cc2ccccc2)NC(=O)[C@@H](Cc2ccc(OC)cc2)NC(=O)Cc2ccccc2)C(N)=O)C(=O)NCC(N)=O)NC(=O)[C@H](CC(N)=O)NC(=O)[C@H](CCC(N)=O)NC1=O [Compound 41] (I: H-CFIQNCP[Dab]G-NH2 / II: PhAc-[dY](Me)FQNAPR[isoGln]K[εLys]; disulfide I:1-I:6; amide I:8-II:C)	8.92	37
CCCCCCC(=O)NCCCC[C@H](NC(=O)CC[C@H](NC(=O)[C@H](CCCNC(=N)N)NC(=O)[C@@H]1CCCN1C(=O)[C@H](C)NC(=O)[C@H](CC(N)=O)NC(=O)[C@H](CCC(N)=O)NC(=O)[C@H](Cc1ccccc1)NC(=O)[C@@H](Cc1ccc(OC)cc1)NC(=O)Cc1ccccc1)C(N)=O)C(=O)NCCCC[C@H](N)C(=O)NCC[C@H](NC(=O)[C@@H]1CCCN1C(=O)[C@@H]1CSSC[C@H](N)C(=O)N[C@@H](Cc2ccccc2)C(=O)N[C@@H]([C@@H](C)CC)C(=O)N[C@@H](CCC(N)=O)C(=O)N[C@@H](CC(N)=O)C(=O)N1)C(=O)NCC(N)=O [Compound 43] (I: H-CFIQNCP[Dab]G-NH2 / II: PhAc-[dY](Me)FQNAPR[isoGln]K(Heptanoyl)[εLys]; disulfide I:1-I:6; amide I:8-II:C)	8.85	59
CC[C@H](C)[C@@H]1NC(=O)[C@H](Cc2ccccc2)NC(=O)[C@@H](N)CSSC[C@@H](C(=O)N2CCC[C@H]2C(=O)N[C@@H](CCNC(=O)[C@@H](N)CCCCNC(=O)CC[C@H](NC(=O)[C@H](CCCNC(=N)N)NC(=O)[C@@H]2CCCN2C(=O)[C@H](CCCNC(N)=O)NC(=O)[C@H](CC(N)=O)NC(=O)[C@H](CCC(N)=O)NC(=O)[C@H](Cc2ccccc2)NC(=O)[C@@H](Cc2ccc(OC)cc2)NC(=O)Cc2ccccc2)C(N)=O)C(=O)NCC(N)=O)NC(=O)[C@H](CC(N)=O)NC(=O)[C@H](CCC(N)=O)NC1=O [Compound 44] (I: H-CFIQNCP[Dab]G-NH2 / II: PhAc-[dY](Me)FQN[Cit]PR[isoGln][εLys]; disulfide I:1-I:6; amide I:8-II:C)	8.70	40
CC[C@H](C)[C@@H]1NC(=O)[C@H](Cc2ccccc2)NC(=O)[C@@H](N)CSSC[C@@H](C(=O)N2CCC[C@H]2C(=O)N[C@@H](CCCNCCCCCNC(=O)CC[C@H](NC(=O)[C@H](CCCNC(=N)N)NC(=O)[C@@H]2CCCN2C(=O)[C@H](CCCNC(N)=O)NC(=O)[C@H](CC(N)=O)NC(=O)[C@H](CCC(N)=O)NC(=O)[C@H](Cc2ccc(Cl)cc2)NC(=O)[C@@H](Cc2ccc(OC)cc2)NC(=O)Cc2ccccc2)C(N)=O)C(=O)NCC(N)=O)NC(=O)[C@H](CC(N)=O)NC(=O)[C@H](CCC(N)=O)NC1=O [Compound 45]	9.10	72
CC[C@H](C)[C@@H]1NC(=O)[C@H](Cc2ccccc2)NC(=O)[C@@H](N)CSSC[C@@H](C(=O)N2CCC[C@H]2C(=O)N[C@@H](CCCNCCCCCNC(=O)CC[C@H](NC(=O)[C@H](CCCNC(=N)N)NC(=O)[C@@H]2CCCN2C(=O)[C@H](CCCNC(N)=O)NC(=O)[C@H](CC(N)=O)NC(=O)[C@H](CCC(N)=O)NC(=O)[C@H](CC(C)(C)C)NC(=O)[C@@H](Cc2ccc(OC)cc2)NC(=O)Cc2ccccc2)C(N)=O)C(=O)NCC(N)=O)NC(=O)[C@H](CC(N)=O)NC(=O)[C@H](CCC(N)=O)NC1=O [Compound 46]	8.85	62
